Where “and” joins values, the source holds several entries; their conditions need not be identical. Equal values may be shown once.
Test system: 519858-162-T-J1-PDC spheroid growth inhibition
Experiment: Anticancer human tumor 519858-162-T-J1-PDC patient-derived colon adenocarcinoma cell line growth inhibition [TAK]
Details: spheroids with HUVEC and MSC; for viability, T/C: stronger effect = lower value
From the text: Combinatorial screen of targeted agents with TAK-243 and ipatasertib in multi-cell type tumor spheroids
A high-throughput screen of multi-cell type tumor spheroids was designed to identify active combinations of targeted small molecules and TAK-243 or ipatasertib. Complex spheroids include a stromal component modeled by human endothelial cells (HUVEC) and fibroblasts modeled by human mesenchymal stem cells (MSCs). The concentration ranges selected for each drug and investigational agent were based upon clinically achievable concentrations if the clinical Cmax of the agent was known.
Compounds. The drugs and investigational agents: TAK-243 (785004), ipatasertib (767898), everolimus (733504), selumetinib (741078), bortezomib (756655), trametinib (758246), ixazomib (758254), vemurafenib (761431), dabrafenib (764134), sapanisertib (764658), alpelisib (765974), and copanlisib (816437), were obtained from the National Cancer Institute (NCI) Developmental Therapeutics Program Chemical Repository. The FDA-approved anticancer drug set is available from the NCI Developmental Therapeutics Program. […] The stock solutions were prepared in dimethyl sulfoxide (DMSO, Sigma-Aldrich, St. Louis, MO, cat. D2650) at 800-fold the tested concentration and stored at -70 degrees C prior to their use. All drugs and investigational agents were tested over a range starting from a high concentration at or near the clinical Cmax and decreasing in half-log increments. If the clinical Cmax for an agent had not been determined, the highest concentration tested was 10 microM.
NCI60 Cell Culture. NCI60 cell lines were obtained from the NCI Developmental Therapeutics Program Tumor Repository. For each lot of cells, the Repository performed Applied Biosystems AmpFLSTR Identifiler testing with PCR amplification to confirm consistency with the published Identifier STR profile for each cell line. Cells were kept in continuous culture for no more than 20 passages. The optimal seeding densities for each of the cell lines at each time point assessed were determined prior to performing the concentration response studies. Briefly, the NCI60 human tumor lines were grown as monolayers in RPMI 1640 medium supplemented with 10% FBS and 2 mmol/L L-glutamine.
An additional 2 lines were from the NCI60 cell line panel including melanomas, MALME-3M and SK-MEL-2. Pooled donor human umbilical vein endothelial cells (HUVEC, Lonza, cat. CC-2519) and human mesenchymal stem cells (hMSC, Lonza, cat. PT-2501) were purchased from Lonza (Walkersville, MD).
PDMR cell lines were grown in complete medium (DC medium): Dulbecco's modified Eagle's medium (DMEM)/F12 supplemented with 5% fetal bovine serum (FBS), 2 mM L-glutamine, 100 U/mL penicillin and 100 µg/ml streptomycin, 0.4 µg/ml hydrocortisone, 10 ng/ml epidermal growth factor (EGF) recombinant human protein, 24 µg/mL adenine, and 0.1 mg/mL primocin. During culture from frozen stock vials, PDMR cells were cultured in the same medium containing 10 µM Y-27632 (see Table 3). The PDCs were cultured in complete DMEM/F12 media without 10 microM Y-27632 dihydrochloride for at least two passages prior to the screen. The pooled donor HUVEC and hMSC were cultured in endothelial cell growth medium 2 (PromoCell, Heidelberg, Germany, cat. C-22011) and mesenchymal stem cell growth medium 2 (PromoCell, cat. C-28009), respectively. For all experiments, HUVEC and hMSC were used at passages </=5.
For the pre-screen, cell seeding densities were determined from a titration spanning the range from 5,000 to 313 cells per well. The mct-spheroids including 60% malignant cells, 25% HUVEC and 15% MSC dispensed as a mixture into U-bottom Ultra-Low Attachment 384-well plates (Corning, NY)
High-throughput Drug Combination Screening.
Prior to their inoculation into 384-well plates, malignant cells, HUVEC, and hMSC were removed from T flasks using TrypLE express (Thermo Fisher Scientific, cat. 12605036) and harvested by centrifugation for 5 min at 233 x g. […]
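Also: spheroids exposed to drugs for 7 days.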

Question: `CC(C)CC(NC(=O)CNC(=O)c1cc(Cl)ccc1Cl)B1OC(=O)CC(CC(=O)O)(C(=O)O)O1` (stereo not given) was tested. Which viability, T/C (compound 0.000316 µM) did it give?
Answer: 86.2% and 83.8%

Question: What about the viability, T/C (compound 0.00316 µM) of the same compound?
Answer: 106% and 95.6%

Question: And the viability, T/C (compound 0.01 µM)?
Answer: 92.6% and 72.9%

Question: And the viability, T/C (compound 0.0316 µM)?
Answer: 74.9% and 77%

Question: And the viability, T/C (compound 0.1 µM)?
Answer: 74.5% and 84.2%

Question: What about the IC50 (curve of compound) of the same compound?
Answer: > 100 nM

Question: With `CC(=O)Nc1cccc(-n2c(=O)n(C3CC3)c(=O)c3c(Nc4ccc(I)cc4F)n(C)c(=O)c(C)c32)c1` + CC(C)NCC(C(=O)N1CCN(c2ncnc3c2C(C)CC3O)CC1)c1ccc(Cl)cc1 as the compound, how does the IC50 (curve of first compound, second compound 0.3 µM) read?
Answer: 5.63 nM

Question: What about the IC50 (curve of first compound, second compound 0.949 µM) of the same compound?
Answer: 5.24 nM

Question: And the IC50 (curve of first compound, second compound 3 µM)?
Answer: 5.89 nM

Question: And the IC50 (curve of first compound, second compound 9.49 µM)?
Answer: 6.24 nM

Question: What about the IC50 (curve of first compound, second compound 30 µM) of the same compound?
Answer: 9.07 nM

Question: And the viability, T/C (second compound 0.3 µM, first compound 94.9 pM)?
Answer: 78.5%

Question: And the viability, T/C (second compound 0.3 µM, first compound 0.0003 µM)?
Answer: 87.2%

Question: And the viability, T/C (second compound 0.3 µM, first compound 0.000949 µM)?
Answer: 72%

Question: What about the viability, T/C (second compound 0.3 µM, first compound 0.003 µM) of the same compound?
Answer: 62.6%

Question: And the viability, T/C (second compound 0.3 µM, first compound 0.00949 µM)?
Answer: 40.1%

Question: And the viability, T/C (second compound 0.3 µM, first compound 0.03 µM)?
Answer: 18.1%

Question: What about the viability, T/C (second compound 0.949 µM, first compound 94.9 pM) of the same compound?
Answer: 99.8%

Question: And the viability, T/C (second compound 0.949 µM, first compound 0.0003 µM)?
Answer: 107%

Question: What about the viability, T/C (second compound 0.949 µM, first compound 0.000949 µM) of the same compound?
Answer: 69%

Question: And the viability, T/C (second compound 0.949 µM, first compound 0.003 µM)?
Answer: 66.1%

Question: And the viability, T/C (second compound 0.949 µM, first compound 0.00949 µM)?
Answer: 37.8%

Question: What about the viability, T/C (second compound 0.949 µM, first compound 0.03 µM) of the same compound?
Answer: 18.4%

Question: What about the viability, T/C (second compound 3 µM, first compound 94.9 pM) of the same compound?
Answer: 82.7%

Question: And the viability, T/C (second compound 3 µM, first compound 0.0003 µM)?
Answer: 97.7%

Question: And the viability, T/C (second compound 3 µM, first compound 0.000949 µM)?
Answer: 86.2%

Question: What about the viability, T/C (second compound 3 µM, first compound 0.003 µM) of the same compound?
Answer: 65.6%

Question: And the viability, T/C (second compound 3 µM, first compound 0.00949 µM)?
Answer: 39.5%

Question: What about the viability, T/C (second compound 3 µM, first compound 0.03 µM) of the same compound?
Answer: 26.5%

Question: What about the viability, T/C (second compound 9.49 µM, first compound 94.9 pM) of the same compound?
Answer: 70.6%

Question: And the viability, T/C (second compound 9.49 µM, first compound 0.0003 µM)?
Answer: 78.9%

Question: And the viability, T/C (second compound 9.49 µM, first compound 0.000949 µM)?
Answer: 73.2%

Question: What about the viability, T/C (second compound 9.49 µM, first compound 0.003 µM) of the same compound?
Answer: 62.7%

Question: And the viability, T/C (second compound 9.49 µM, first compound 0.00949 µM)?
Answer: 42.5%

Question: And the viability, T/C (second compound 9.49 µM, first compound 0.03 µM)?
Answer: 18.2%

Question: And the viability, T/C (second compound 30 µM, first compound 94.9 pM)?
Answer: 109%

Question: And the viability, T/C (second compound 30 µM, first compound 0.0003 µM)?
Answer: 77.6%

Question: What about the viability, T/C (second compound 30 µM, first compound 0.000949 µM) of the same compound?
Answer: 95.4%

Question: What about the viability, T/C (second compound 30 µM, first compound 0.003 µM) of the same compound?
Answer: 68.5%

Question: And the viability, T/C (second compound 30 µM, first compound 0.00949 µM)?
Answer: 48.3%

Question: And the viability, T/C (second compound 30 µM, first compound 0.03 µM)?
Answer: 21.8%

Question: Which viability, T/C (compound 3 µM) does the source give for `CC(C)NCC(C(=O)N1CCN(c2ncnc3c2C(C)CC3O)CC1)c1ccc(Cl)cc1` (stereo not given) here?
Answer: 87% [middle of 10 runs]

Question: And the viability, T/C (compound 30 µM)?
Answer: 86.8% [middle of 10 runs]

Question: What about the IC50 (compound alone, run of 02/28/2020) of the same compound?
Answer: > 30000 nM

Question: Which results are given for `CC(C)n1nc(-c2ccc3oc(N)nc3c2)c2c(N)ncnc21`?
Answer: viability, T/C (compound 0.001 µM): 104% and 100%; viability, T/C (compound 0.00316 µM): 94.8% and 95.9%; viability, T/C (compound 0.01 µM): 112% and 97.5%; viability, T/C (compound 0.0316 µM): 78.9% and 93.1%; viability, T/C (compound 0.1 µM): 74.1% and 61.6%; IC50 (curve of compound): > 100 nM

— PubChem BioAssay AID2060354 (Molecular Pharmacology Branch, DTP, NCI, 2025)
